For assay [1], the target named is human vasopressin V1a receptor (Homo sapiens, UniProt P37288). Briefly: Vasopressin V1a receptor binding assay. As to conditions: selectivity quotient, human V1a vs human V1b.
Assay [2] has as its target T1, human vasopressin V1b receptor (Homo sapiens, UniProt P47901).
T1 sequence (P47901 1-424): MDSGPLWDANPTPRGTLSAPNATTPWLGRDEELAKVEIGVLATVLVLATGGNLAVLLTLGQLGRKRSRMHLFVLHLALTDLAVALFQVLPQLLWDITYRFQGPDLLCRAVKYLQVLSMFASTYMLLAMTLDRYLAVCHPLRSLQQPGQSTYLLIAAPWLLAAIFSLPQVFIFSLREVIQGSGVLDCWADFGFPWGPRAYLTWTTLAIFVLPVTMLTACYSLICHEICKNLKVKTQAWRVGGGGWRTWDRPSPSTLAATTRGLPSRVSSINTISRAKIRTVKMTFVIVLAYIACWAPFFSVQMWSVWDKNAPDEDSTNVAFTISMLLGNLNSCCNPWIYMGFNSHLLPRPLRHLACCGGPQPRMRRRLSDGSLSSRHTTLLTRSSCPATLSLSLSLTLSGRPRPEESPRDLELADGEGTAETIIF
As to the kind of experiment: biochemical.

Sequence of human vasopressin V1a receptor (P37288 whole entry): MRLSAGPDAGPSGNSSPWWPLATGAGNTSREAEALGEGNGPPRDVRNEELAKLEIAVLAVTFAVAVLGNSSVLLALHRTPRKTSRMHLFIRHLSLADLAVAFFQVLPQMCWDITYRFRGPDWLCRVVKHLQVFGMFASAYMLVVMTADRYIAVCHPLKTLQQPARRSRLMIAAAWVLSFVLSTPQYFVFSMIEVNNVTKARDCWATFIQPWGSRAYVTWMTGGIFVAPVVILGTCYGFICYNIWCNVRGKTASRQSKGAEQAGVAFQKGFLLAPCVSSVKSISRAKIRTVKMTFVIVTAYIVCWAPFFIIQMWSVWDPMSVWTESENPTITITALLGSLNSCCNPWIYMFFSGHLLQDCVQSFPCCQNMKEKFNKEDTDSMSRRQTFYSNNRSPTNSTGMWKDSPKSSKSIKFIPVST

For `COc1ccccc1S(=O)(=O)N1C(=O)[C@@](NC(=O)N2CCC(C3CCN(C4COC4)CC3)CC2)(c2cccnc2OC)c2cc(C#N)ccc21` [Example 49, (S)—N-(5-cyano-1-((2-methoxyphenyl)sulfonyl)-3-(2-methoxypyridin-3-yl)-2-oxoindolin-3-yl)-1′-(oxetan-3-yl)-[4,4′-bipiperidine]-1-carboxamide], the “Ki(h-V1a)/Ki(h-V1b)” value in assay [1] is “+++ (>75)”. Also, the Ki (usually a measure of affinity in units of concentration, obtained from inhibition or displacement) in assay [2] was 1 to 10 nM.
Turning to `CCOc1ncccc1[C@]1(NC(=O)N2CC3CC2CN3C2CCN(C3COC3)CC2)C(=O)N(S(=O)(=O)c2ccc(OC)cc2OC)c2ccc(C#N)cc21` (stereo partly drawn) [Example 38, N-[(3S)-5-cyano-1-(2,4-dimethoxyphenyl)sulfonyl-3-(2-ethoxy-3-pyridyl)-2-oxo-indolin-3-yl]-5-[1-(oxetan-3-yl)-4-piperidyl]-2,5-diazabicyclo[2.2.1]heptane-2-carboxamide], the “Ki(h-V1a)/Ki(h-V1b)” value in assay [1] is on record as “+++ (>75)”. Moreover, in assay [2], the Ki was in the range of 10 to 100 nM.
The corresponding values for `CCOc1ccc(OC)cc1[C@]1(NC(=O)N2CCN(C3CCN(C4COC4)CC3)CC2)C(=O)N(S(=O)(=O)c2ccc(F)cc2OC)c2ccc(C#N)cc21` [Example 35, N-[(3S)-5-cyano-3-(2-ethoxy-5-methoxy-phenyl)-1-(4-fluoro-2-methoxy-phenyl)sulfonyl-2-oxo-indolin-3-yl]-4-[1-(oxetan-3-yl)-4-piperidyl]piperazine-1-carboxamide] are “+++ (>75)” and 1 to 10 nM.
As to `COc1ncccc1[C@]1(NC(=O)N2CCC(C3CCN(C4COC4)CC3)CC2)C(=O)N(S(=O)(=O)c2ccc(F)cc2)c2ccc(C#N)cc21` [Example 40, N-[(3S)-5-cyano-1-(4-fluorophenyl)sulfonyl-3-(2-methoxy-3-pyridyl)-2-oxo-indolin-3-yl]-4-[1-(oxetan-3-yl)-4-piperidyl]piperidine-1-carboxamide], the “Ki(h-V1a)/Ki(h-V1b)” value in assay [1] was “+ (10-<25)”. Besides, in assay [2], the Ki lay in the range of 1 to 10 nM.
For `COc1ncccc1[C@]1(NC(=O)N2CCN(C3CCN(C4COC4)CC3)CC2)C(=O)N(S(=O)(=O)c2ccc(C#N)cc2)c2ccc(C#N)cc21` [Example 43, N-[(3S)-5-cyano-1-(4-cyanophenyl)sulfonyl-3-(2-methoxy-3-pyridyl)-2-oxo-indolin-3-yl]-4-[1-(oxetan-3-yl)-4-piperidyl]piperazine-1-carboxamide], the “Ki(h-V1a)/Ki(h-V1b)” value in assay [1] was “+ (10-<25)”. In assay [2], the Ki is 10 to 100 nM.
On the same counts, the results for `CCOc1ncccc1[C@]1(NC(=O)N2CCN(C3CCN(C4COC4)CC3)CC2)C(=O)N(S(=O)(=O)c2ccc(F)cc2OC)c2ccc(C#N)cc21` [Example 26, N-[(3S)-5-cyano-3-(2-ethoxy-3-pyridyl)-1-(4-fluoro-2-methoxy-phenyl)sulfonyl-2-oxo-indolin-3-yl]-4-[1-(oxetan-3-yl)-4-piperidyl]piperazine-1-carboxamide] are “+++ (>75)” and 1 to 10 nM.
Regarding `COc1ccc(S(=O)(=O)N2C(=O)[C@@](NC(=O)N3CCN(C4CCN(C5COC5)CC4)CC3)(c3cc(OC)ccc3OC)c3cc(C#N)ccc32)c(OC)c1` [Example 54, (S)—N-(5-cyano-3-(2,5-dimethoxyphenyl)-1-((2,4-dimethoxyphenyl)sulfonyl)-2-oxoindolin-3-yl)-4-(1-(oxetan-3-yl)piperidin-4-yl)piperazine-1-carboxamide], the “Ki(h-V1a)/Ki(h-V1b)” value in assay [1] was “++ (25-75)”. The compound also yielded a Ki in assay [2] of less than 1 nM.
On to `COc1ncccc1[C@]1(NC(=O)N2CCC(C3CCN(C4COC4)CC3)CC2)C(=O)N(S(=O)(=O)c2ccccc2)c2ccc(C#N)cc21` [Example 50, (S)—N-(5-cyano-3-(2-methoxypyridin-3-yl)-2-oxo-1-(phenylsulfonyl)indolin-3-yl)-1′-(oxetan-3-yl)-[4,4′-bipiperidine]-1-carboxamide], for which, in assay [1], the “Ki(h-V1a)/Ki(h-V1b)” value is reported as “++ (25-75)”. In assay [2], this compound returned a Ki of 10 to 100 nM.
On to `COc1cc(F)ccc1S(=O)(=O)N1C(=O)[C@@](NC(=O)N2CCN(C3CCN(C4COC4)CC3)CC2)(c2cccnc2OC)c2cc(C#N)ccc21` [Example 30, N-[(3S)-5-cyano-1-(4-fluoro-2-methoxy-phenyl)sulfonyl-3-(2-methoxy-3-pyridyl)-2-oxo-indolin-3-yl]-4-[1-(oxetan-3-yl)-4-piperidyl]piperazine-1-carboxamide], for which, in assay [1], the “Ki(h-V1a)/Ki(h-V1b)” value is “+++ (>75)”. In addition, the inhibitory constant (Ki) in assay [2] is 1 to 10 nM.
In the case of `COc1ccc(S(=O)(=O)N2C(=O)[C@@](NC(=O)N3CCC(C4CCN(C5COC5)CC4)CC3)(c3cc(OC)ccc3OC)c3cc(C#N)ccc32)c(OC)c1` [Example 55, (S)—N-(5-cyano-3-(2,5-dimethoxyphenyl)-1-((2,4-dimethoxyphenyl)sulfonyl)-2-oxoindolin-3-yl)-1′-(oxetan-3-yl)-[4,4′-bipiperidine]-1-carboxamide], the “Ki(h-V1a)/Ki(h-V1b)” value in assay [1] is “+ (10-<25)”. In assay [2], this compound displayed a Ki of less than 1 nM.
With `CCOc1ncccc1[C@]1(NC(=O)N2CCN(C3CCN(CC4COC4)CC3)CC2)C(=O)N(S(=O)(=O)c2ccc(OC)cc2OC)c2ccc(C#N)cc21` [Example 19, (S)—N-(5-cyano-1-((2,4-dimethoxyphenyl)sulfonyl)-3-(2-ethoxypyridin-3-yl)-2-oxoindolin-3-yl)-4-(1-(oxetan-3-ylmethyl)piperidin-4-yl)piperazine-1-carboxamide], in assay [1], the “Ki(h-V1a)/Ki(h-V1b)” value is on record as “+++ (>75)”. The Ki in assay [2] fell in the range of 10 to 100 nM.
`CCOc1ccc(OC)cc1[C@]1(NC(=O)N2CCN(C3CCN(C4COC4)CC3)CC2)C(=O)N(S(=O)(=O)c2ccc(OC)cn2)c2ccc(C#N)cc21` [Example 32, N-[(3S)-5-cyano-3-(2-ethoxy-5-methoxy-phenyl)-1-[(5-methoxy-2-pyridyl)sulfonyl]-2-oxo-indolin-3-yl]-4-[1-(oxetan-3-yl)-4-piperidyl]piperazine-1-carboxamide]: the “Ki(h-V1a)/Ki(h-V1b)” value in assay [1] is “+++ (>75)”. This compound registered a Ki in assay [2] of 10 to 100 nM.
Turning to `COc1ccc(S(=O)(=O)N2C(=O)[C@@](NC(=O)N3CCN(C4CCN(C5COC5)CC4)CC3)(c3cccnc3OC)c3cc(C#N)ccc32)nc1` [Example 29, N-[(3S)-5-cyano-3-(2-methoxy-3-pyridyl)-1-[(5-methoxy-2-pyridyl)sulfonyl]-2-oxo-indolin-3-yl]-4-[1-(oxetan-3-yl)-4-piperidyl]piperazine-1-carboxamide], the “Ki(h-V1a)/Ki(h-V1b)” value in assay [1] is reported as “+ (10-<25)”. In assay [2], this compound had a Ki of 1 to 10 nM.
Turning to `COc1ccc(S(=O)(=O)N2C(=O)[C@@](NC(=O)N3CCC(N4CCN(C5COC5)CC4)CC3)(c3cccnc3OC)c3cc(C#N)ccc32)c(OC)c1` [Example 31, N-[(3S)-5-cyano-1-(2,4-dimethoxyphenyl)sulfonyl-3-(2-methoxy-3-pyridyl)-2-oxo-indolin-3-yl]-4-[4-(oxetan-3-yl)piperazin-1-yl]piperidine-1-carboxamide], the “Ki(h-V1a)/Ki(h-V1b)” value in assay [1] was “+++ (>75)”. In assay [2], this compound yielded an inhibition constant Ki of 10 to 100 nM.
As to `COc1ccc(S(=O)(=O)N2C(=O)[C@@](NC(=O)N3CCC(C4CCN(C5COC5)CC4)CC3)(c3cccnc3OC)c3cc(C#N)ccc32)cc1` [Example 36, N-[(3S)-5-cyano-1-(4-methoxyphenyl)sulfonyl-3-(2-methoxy-3-pyridyl)-2-oxo-indolin-3-yl]-4-[1-(oxetan-3-yl)-4-piperidyl]piperidine-1-carboxamide], the “Ki(h-V1a)/Ki(h-V1b)” value in assay [1] is “+++ (>75)”. The compound further came in with a Ki in assay [2] of 1 to 10 nM.
